Laboratory results: US20100273701A1, “USE OF SALUSIN BETA ALONE OR IN COMBINATION WITH OCTREOTIDE AS A THERAPEUTIC AGENT” (priority 2007, published 2010)

How the values were obtained:
[1] = tested on: hepatitis B virus (HBV) ayw strain; assay: HBV experimental assay system, HepG2-2.2.15 cells, TaqMan PCR of secreted HBV DNA; type: cell-based; details: 10 micrograms per ml, six days, combination 0.95 mole peptide 1 and 1.05 mole peptide 2
[2] = tested on: Human A549 cells; assay: Apoptosis prevention assay (C2 ceramide, Annexin-5); type: cell-based; details: 10 micrograms per ml, 30 min pretreatment, combination 0.95 mole peptide 1 and 1.05 mole peptide 2
[3] = tested on: murine spleen cells; assay: Th1/Th2 cytokine profiling assay; type: cell-based, Balb/c mice; details: 10 micrograms per ml, Ovalbumin restimulation, 72 hours; for production of IL-2 in murine spleen cells (induced / increased by): combination 0.95 mole peptide 1 and 1.05 mole peptide 2
[4] = tested on: Primary Human endothelial cells (HUVEC); assay: Endothelial cell migration assay; type: cell-based; details: 10 micrograms per ml, 22 hours
[5] = tested on: HUVEC; assay: Endothelial tube formation assay; type: cell-based, human; details: 10 micrograms per ml; 20 hours; combination peptide 1: peptide 2 1.10 mole: 0.90 mole
Excerpt: Positive control was vehicle only. […] Raw data were expressed as average tubule […] ±standard deviation.

[6] = tested on: Streptococcus pneumoniae; details: 10 micrograms per ml; read visually
[7] = tested on: HCMV strain AD169; assay: HCMV plaque formation assay in MRC-5 cells; details: for inhibition of HCMV plaque formation as compared to the virus control experiment: 10 micrograms per ml, 7-10 days
[8] = tested on: HIV-1III8; type: cell-based

Molecule | inhibition of HBV replication as compared to the virus control infection [1] [%] | reduction of the ceramide-induced apoptosis on human lung cells [2] | change of the production of IL-4 in murine spleen cells [3] | change of the production of IL-5 in murine spleen cells [3] | change of the production of TNF-alpha in murine spleen cells [3] | production of IFN-γ in murine spleen cells (decreased by) [3] | production of IL-2 in murine spleen cells (induced / increased by) [3] [%] | increase of the migration of endothelial cells [4] [%] | inhibition of the tube formation of human endothelial cells [5] [%] | inhibition of the growth of Streptococcus pneumoniae [6] | inhibition of HCMV plaque formation as compared to the virus control experiment [7] | inhibition of the migration of human endothelial cells ([4]; combination peptide 1: peptide 2 1.10 mole: 0.90 mole) [%] | antiviral activity of positive control compound (HCMV) ([7]; positive control) | antiviral activity of positive control compounds (HIV-1) [8]
C[C@@H](O)[C@@H]1NC(=O)[C@H](CCCCN)NC(=O)[C@@H](Cc2c[nH]c3ccccc23)NC(=O)[C@H](Cc2ccccc2)NC(=O)[C@@H](NC(=O)[C@H](N)Cc2ccccc2)CSSC[C@@H](C(=O)N[C@H](CO)[C@@H](C)O)NC1=O [Peptide 2, D-Phe-Cys-Phe-D-Trp-Lys-Thr-Cys-L-threoninol] | 13.4 | did not reduce | did not significantly change | did not significantly change | did not significantly change | 44% | 59.5 | 24 | 8 | 100% | 2.9% | – | – | –
Ala-lle-Phe-Ile-Phe-Ile-Arg-Trp-Leu-Leu-Lys-Leu-Gly-His-His-Gly-Arg-Ala-Pro-Pro-OH [Peptide 1] | 44.6 | 28.2% | did not significantly change | did not significantly change | did not significantly change | did not significantly change | 156 | – | 23 | no inhibitory effects | did not inhibit | 19 | – | –
Nc1nc(O)c2ncn(COC(CO)CO)c2n1 [Ganciclovir] | – | – | – | – | – | – | – | – | – | – | – | – | expected levels of antiviral activity | –
Cc1cn([C@H]2C[C@H](N=[N+]=[N-])[C@@H](CO)O2)c(=O)[nH]c1=O [AZT] | – | – | – | – | – | – | – | – | – | – | – | – | – | expected levels of antiviral activity
CC(C)(C)NC(=O)[C@@H]1CN(Cc2cccnc2)CCN1C[C@@H](O)C[C@@H](Cc1ccccc1)C(=O)N[C@H]1c2ccccc2C[C@H]1O [indinavir] | – | – | – | – | – | – | – | – | – | – | – | – | – | expected levels of antiviral activity
